Results on 25 compounds are retold here after patent publication US5578622A, “Isothiazole derivatives and their uses” (Asamura Patent Office, priority 1994, dated 1996).

The subject of one assay is Tyromyces palustris. Description: Test for wood rotting-preventing effect (mycelium growth inhibition on malt extract agar). It counts as cell-based. Particulars: 28° C.±2° C., 2 to 10 days, read-out: Rotting preventing effect (mycelium growth-inhibitory rate), TYP. The method, then:
(§1) The following fungi were cultured in agar media, respectively, and mycelial disks on the media were stamped out together with the agar using a cork borer of 4 mm in diameter. The resulting mycelial disks on agar were used as an inoculum. Each test compound of 50 ppm was added to a malt extract agar medium and added in parts to Petri dishes. The above prepared inoculum was put on the Petri dishes and cultured at 28° C.±2° C. Two to ten days after inoculation, the diameter of the mycelial disk of each fungus was measured, and the mycelium growth-inhibitory rate was obtained according to the following equation. [formula] The mycelium growth-inhibitory rate (%) is indicated by the following symbols as a fungicidal effect on each fungus, and the results are shown in Table 2. | TYP: Tyromyces palustris

Another assay concerns Trichoderma viride. The assay is described as above. It counts as cell-based. Particulars: 28° C.±2° C., 2 to 10 days, read-out: Rotting preventing effect (mycelium growth-inhibitory rate), TRV. As for the experimental part:
as §1, with “TRV: Trichoderma viride” for “TYP: Tyromyces palustris”

The next assay deals with Aspergillus niger. The description is as above. Particulars: 28° C.±2° C., 2 to 10 days, read-out: Rotting preventing effect (mycelium growth-inhibitory rate), ASN. Type of assay: cell-based. As for the experimental part:
as §1, with “ASN: Aspergillus niger” for “TYP: Tyromyces palustris”

The test system of a further assay is Rhizopus nigricans. The assay is described as above. Particulars: Rhizopus stolonifer, 28° C.±2° C., 2 to 10 days, read-out: Rotting preventing effect (mycelium growth-inhibitory rate), RHN. Type of assay: cell-based. The method, then:
as §1, with “RHN: Rhizopus nigricans” for “TYP: Tyromyces palustris”

In assay [1] the test system is Gibberella fujikuroi ("Bakanae" disease of rice). In words: Test for rice seed-disinfecting effect. It counts as in vivo. Particulars: Fusarium fujikuroi, 504 h, seed immersion 25° C. 24 hours, three weeks after treatment, read-out: Controlling effect (control of disease), "Bakanae" disease of rice. As for the experimental part: 2-1 Test for rice seed-disinfecting effect
Unhulled rice infected with Gibberella fujikuroi ("Bakanae" disease of rice) was immersed in a test compound adjusted to 1000 ppm at 25° C. for 24 hours. Water was lightly swished off the seed, which was then sowed and germinated for two days. Three weeks after treatment with the solution containing the compound, the rate of the infected seedlings was examined, and the control of disease was calculated by comparison with that of the untreated plot. The control of disease was shown as a controlling effect on the basis of the following standard.

The subject of assay [2] is Pseudoperonospora cubensis. Description: Test for controlling effect on downy mildew of cucumber. It counts as in vivo. Particulars: 168 h, 200 ppm spray, one day before inoculation, cucumber 2-leaf stage, read-out: Controlling effect (control of disease), Downy mildew of cucumber. As for the experimental part: 2-2 Test for controlling effect on downy mildew of cucumber (Pseudoperonospora cubensis) A test compound adjusted to 200 ppm was sprayed onto cucumber at the 2-leaf stage cultivated in pots. After one day, the cucumber was inoculated by spraying the zoospore suspension of Pseudoperonospora cubensis. After inoculation, the cucumber was placed in a 25° C.-humid room for 1 day and then in a greenhouse for 6 days. Thus, the cucumber was made to be infected with downy mildew. The control of disease of the test compound is calculated by comparing the degree of infection of each leaf with that in the untreated plot. The control of disease is shown as a controlling effect in the same manner as in Test Example 2-1.

The next assay has as its system Rhizoctonia solani. In words: Test for controlling effect on sheath blight of rice. Type of assay: in vivo. Particulars: 120 h, 200 ppm spray, 24 hours after inoculation, rice 4-leaf stage, five days after inoculation, read-out: Controlling effect (control of disease), Sheath blight of rice. As for the experimental part:
2-3 Test for controlling effect on sheath blight of rice (Rhizoctonia solani) Rice seedlings at the 4-leaf stage were inoculated with the mycelium of sheath blight of rice (Rhizoctonia solani). After 24 hours, a test medicine solution adjusted to 200 ppm was sprayed onto the seedlings. After air-drying, the seedlings were placed in a humid room for 24 hours where the temperature was kept at 28° C. and humidity was kept at 98%. Thereafter, the seedlings were transferred to a greenhouse, and five days after inoculation, the degree of infected area was examined. The control of disease was calculated by comparison with that in the untreated plot. The control of disease is shown as a controlling effect in the same manner as in Test Example 2-1.

Consider `CCCSc1snc(OCOCC#CI)c1C#N` [Compound 87], for which the inhibition at 50 ppm in the assay with Tyromyces palustris, in the assay with Trichoderma viride, in the assay with Aspergillus niger and in the assay with Rhizopus nigricans was 95 to 100% each time.
As for `CC(C)Oc1nsc(OCC#CI)c1C#N` [Compound 51], the inhibition at 50 ppm with Tyromyces palustris, in the assay with Trichoderma viride, in the assay with Aspergillus niger and in the assay with Rhizopus nigricans was 95 to 100% each time.
For `CCSc1snc(OCOCC#CI)c1C#N` [Compound 86, 3-(3-iodo-2-propynyloxymethyloxy)-4-cyano-5-ethylthioisothiazole], the inhibition at 50 ppm with Tyromyces palustris, in the assay with Trichoderma viride, in the assay on Aspergillus niger and in the assay with Rhizopus nigricans was 95 to 100% in each case. Also, in assay [1], the pest or weed control at 1000 ppm was 95 to 100%. The values for the pest or weed control at 200 ppm (in assay [2]; in the assay on Rhizoctonia solani) were 95 to 100% and 80 to 94%, respectively.
For the compound `CCS(=O)(=O)c1snc(OCCC#CI)c1C#N` [Compound 78], the inhibition at 50 ppm in the assay with Tyromyces palustris, in the assay on Trichoderma viride, in the assay with Aspergillus niger and with Rhizopus nigricans was 95 to 100% throughout. Also, the pest or weed control at 1000 ppm in assay [1] was 95 to 100%. The figures for the pest or weed control at 200 ppm (in assay [2]; in the assay on Rhizoctonia solani) were 80 to 94% and 95 to 100%, respectively.
As to `C=CCSc1snc(OCC#CI)c1C#N` [Compound 8], the pest or weed control at 1000 ppm in assay [1] is 95 to 100%. Further, the figures for the pest or weed control at 200 ppm (in assay [2]; in the assay with Rhizoctonia solani) were 95 to 100% and 60 to 79%, respectively.
As to `CC(C)Sc1snc(OCCC#CI)c1C#N` [Compound 72], the inhibition at 50 ppm in the assay with Tyromyces palustris, in the assay with Trichoderma viride, in the assay on Aspergillus niger and in the assay with Rhizopus nigricans was 95 to 100% throughout.
For the compound `CC(OCC#CI)Oc1nsc(SC(F)F)c1C#N` (stereo not drawn) [Compound 122], the inhibition at 50 ppm in the assay on Tyromyces palustris, in the assay with Trichoderma viride, with Aspergillus niger and with Rhizopus nigricans was 95 to 100% in each case. In addition, the pest or weed control at 1000 ppm in assay [1] is 95 to 100%. Further, the pest or weed control at 200 ppm (in assay [2]; in the assay with Rhizoctonia solani) was 95 to 100% in each case.
Regarding `CC(C)Oc1snc(OCOCC#CI)c1C#N` [Compound 98], the inhibition at 50 ppm with Tyromyces palustris, in the assay with Trichoderma viride, with Aspergillus niger and in the assay on Rhizopus nigricans was 95 to 100% throughout.
Take `COCCSc1snc(OCC#CI)c1C#N` [Compound 15]: the pest or weed control at 1000 ppm in assay [1] lay in the range of 95 to 100%. Also, the pest or weed control at 200 ppm (in assay [2]; in the assay with Rhizoctonia solani) was 80 to 94% in each case.
As for `CCSc1snc(SCOCC#CI)c1C#N` [Compound 129], the inhibition at 50 ppm in the assay with Tyromyces palustris was 95 to 100%; with Trichoderma viride, 95 to 100%; in the assay on Aspergillus niger, 80 to 94%; in the assay on Rhizopus nigricans, 80 to 94%.
As for `COCCOc1nsc(OCCC#CI)c1C#N` [Compound 84], the inhibition at 50 ppm in the assay on Tyromyces palustris, in the assay on Trichoderma viride, in the assay with Aspergillus niger and in the assay with Rhizopus nigricans was 95 to 100% each time.
`N#Cc1c(SCOCC#CI)nsc1SCOCC#CI` [Compound 140]: the pest or weed control at 1000 ppm in assay [1] was 80 to 94%. Further, the results for the pest or weed control at 200 ppm (in assay [2]; with Rhizoctonia solani) were 95 to 100% and 80 to 94%, respectively.
`N#Cc1c(OCC#CI)nsc1SCOCC#CI` [Compound 142]: the inhibition at 50 ppm in the assay on Tyromyces palustris, in the assay on Trichoderma viride, in the assay on Aspergillus niger and in the assay on Rhizopus nigricans was 95 to 100% each time.
In the case of `CCOc1nsc(SC(C)OCC#CI)c1C#N` (stereo not drawn) [Compound 126], the inhibition at 50 ppm in the assay with Tyromyces palustris, in the assay on Trichoderma viride, in the assay on Aspergillus niger and in the assay on Rhizopus nigricans was 95 to 100% throughout.
For the compound `CCOc1snc(OCOC(C)C#CI)c1C#N` (stereo not drawn) [Compound 114], the pest or weed control at 1000 ppm in assay [1] was 95 to 100%. In addition, the pest or weed control at 200 ppm in assay [2] was in the range of 95 to 100%; in the assay with Rhizoctonia solani, 80 to 94%.
Turning to `N#CCSc1snc(OCC#CI)c1C#N` [Compound 17], the pest or weed control at 1000 ppm in assay [1] fell in the range of 95 to 100%. The pest or weed control at 200 ppm (in assay [2]; with Rhizoctonia solani) was 95 to 100% throughout.
With `C=CCSc1snc(SCOCC#CI)c1C#N` [Compound 132], the inhibition at 50 ppm with Tyromyces palustris, with Trichoderma viride, with Aspergillus niger and with Rhizopus nigricans was 95 to 100% in each case.
`N#Cc1c(OCC#CI)nsc1S(=O)(=O)C1CCCC1` [Compound 46]: the inhibition at 50 ppm was 95 to 100% with Tyromyces palustris, 60 to 79% in the assay with Trichoderma viride, 80 to 94% with Aspergillus niger and 60 to 79% in the assay on Rhizopus nigricans.
On to `COc1snc(OCOCC#CI)c1C#N` [Compound 95], for which the inhibition at 50 ppm in the assay with Tyromyces palustris, in the assay with Trichoderma viride, with Aspergillus niger and with Rhizopus nigricans was 95 to 100% each time.
In the case of `CSc1snc(OCOCC#CI)c1C#N` [Compound 85], the inhibition at 50 ppm in the assay on Tyromyces palustris, with Trichoderma viride, with Aspergillus niger and with Rhizopus nigricans was 95 to 100% each time.
Regarding `C#CCSc1snc(OCC#CI)c1C#N` [Compound 10], the inhibition at 50 ppm in the assay on Tyromyces palustris was 95 to 100%; with Trichoderma viride it was 80 to 94%; in the assay on Aspergillus niger it was 95 to 100%; in the assay with Rhizopus nigricans, 80 to 94%.
On to `N#Cc1c(OCC#CI)nsc1SC1CCCC1` [Compound 7], for which the inhibition at 50 ppm with Tyromyces palustris was 95 to 100%; in the assay with Trichoderma viride it was 60 to 79%; in the assay with Aspergillus niger, 60 to 79%; in the assay with Rhizopus nigricans it was 60 to 79%.
Take `CCCCN(C)c1snc(OCC#CI)c1C#N` [Compound 32]: the pest or weed control at 1000 ppm in assay [1] lay in the range of 80 to 94%. Also, the pest or weed control at 200 ppm fell in the range of 95 to 100% in assay [2] and 60 to 79% in the assay with Rhizoctonia solani.
In the case of `CCSc1snc(OCC#CI)c1C#N` [Compound 2], the inhibition at 50 ppm fell in the range of 95 to 100% in the assay on Tyromyces palustris, 80 to 94% in the assay with Trichoderma viride, 60 to 79% with Aspergillus niger and 80 to 94% in the assay with Rhizopus nigricans.
`C=CC[S+]([O-])c1snc(OCC#CI)c1C#N` (stereo not drawn) [Compound 47]: the pest or weed control at 1000 ppm in assay [1] fell in the range of 95 to 100%. Besides, the pest or weed control at 200 ppm in assay [2] fell in the range of 80 to 94%; in the assay on Rhizoctonia solani it was 95 to 100%.
